Data from ChEMBL document CHEMBL3102753, “7-Azaindole-1-carboxamides as a new class of PARP-1 inhibitors” (Bioorg Med Chem, 2014).

Assays:
HCC1937 = experiment: Antiproliferative activity against BRCA1 gene mutated human HCC1937 cells after 72 hrs by SRB assay; type: functional, cell-based
[1] = Antiproliferative activity against BRCA2 gene mutated human Capan1 cells after 72 hrs by cell counting; details: CAPAN-1, 72 h
[2] = target: T1, Poly [ADP-ribose] polymerase 1 (Homo sapiens, UniProt P09874); experiment: Inhibition of recombinant human GST-fused PARP-1 expressed in Escherichia coli after 30 mins by fluorescence assay
T1 sequence (P09874 whole entry, the tested form may be a part): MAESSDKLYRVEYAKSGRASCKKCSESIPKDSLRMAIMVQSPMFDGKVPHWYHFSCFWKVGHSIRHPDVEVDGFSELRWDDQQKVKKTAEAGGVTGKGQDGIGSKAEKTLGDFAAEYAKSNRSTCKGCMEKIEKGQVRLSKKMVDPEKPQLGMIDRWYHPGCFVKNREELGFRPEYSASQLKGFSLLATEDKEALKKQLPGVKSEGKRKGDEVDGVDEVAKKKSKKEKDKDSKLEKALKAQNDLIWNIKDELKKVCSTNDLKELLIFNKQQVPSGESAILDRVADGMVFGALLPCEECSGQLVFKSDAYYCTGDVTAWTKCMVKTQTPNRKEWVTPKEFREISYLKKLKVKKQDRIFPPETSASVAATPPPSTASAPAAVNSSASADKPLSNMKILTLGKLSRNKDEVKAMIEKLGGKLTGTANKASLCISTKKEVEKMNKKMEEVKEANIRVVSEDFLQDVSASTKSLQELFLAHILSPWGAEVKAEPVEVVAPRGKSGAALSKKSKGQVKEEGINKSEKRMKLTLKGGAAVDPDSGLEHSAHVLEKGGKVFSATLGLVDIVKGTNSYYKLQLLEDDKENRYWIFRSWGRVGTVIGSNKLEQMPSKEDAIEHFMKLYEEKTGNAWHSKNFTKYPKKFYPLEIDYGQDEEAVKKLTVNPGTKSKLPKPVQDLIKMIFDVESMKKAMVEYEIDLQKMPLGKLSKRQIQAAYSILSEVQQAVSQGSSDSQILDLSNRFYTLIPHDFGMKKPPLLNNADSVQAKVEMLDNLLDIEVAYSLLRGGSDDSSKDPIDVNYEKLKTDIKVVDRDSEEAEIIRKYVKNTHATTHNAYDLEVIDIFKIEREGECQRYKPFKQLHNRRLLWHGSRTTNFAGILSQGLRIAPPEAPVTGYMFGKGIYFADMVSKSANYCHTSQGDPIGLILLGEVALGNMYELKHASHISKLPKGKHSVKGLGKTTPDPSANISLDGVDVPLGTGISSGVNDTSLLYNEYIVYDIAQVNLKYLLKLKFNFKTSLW

[3] = Antiproliferative activity against human A2780/DX cells after 72 hrs by SRB assay; type: functional, cell-based
A2780 [4] = experiment: Resistant factor, ratio of IC50 for human A2780/DX cells to IC50 for human A2780 cells; type: functional
Mus musculus [5] = experiment: Toxicity in human MX1 cells harboring BRCA1 deletion and BRCA2 mutant xenografted SCID mouse assessed as reduction of body weight at 100 mg/kg, ip administered every 2 days for 2 weeks measured on day 38 relative to control; type: organism-based; design: dose 100 mg/kg, route intraperitoneal; scale not given: the % may be the effect or the level left; details: in vivo
Mus musculus [6] = experiment: Toxicity in human MX1 cells harboring BRCA1 deletion and BRCA2 mutant xenografted SCID mouse assessed as mortality at 100 mg/kg, ip administered every 2 days for 2 weeks measured on day 38 relative to control; type: organism-based; design: dose 100 mg/kg, route intraperitoneal; details: in vivo
[7] = target: T1, Poly [ADP-ribose] polymerase 1; experiment: Inhibition of PARP-1 in human HeLa cells assessed as decrease of H2O2-induced PARylation after 3 hrs by fluorescence assay; type: cell-based
MX1 [8] = experiment: Antitumor activity against human MX1 cells harboring BRCA1 deletion and BRCA2 mutant xenografted in SCID mouse assessed as reduction of tumor volume at 100 mg/kg, ip administered every 2 days for 2 weeks measured on day 38 relative to control; type: functional; design: scale not given: the % may be the effect or the level left; details: route intraperitoneal
A2780 [9] = experiment: Antiproliferative activity against human A2780 cells after 72 hrs by SRB assay; type: functional, cell-based; details: A2780, 72 h
[10] = Antiproliferative activity against BRCA2 gene mutated human Capan1 cells after 72 hrs by SRB assay; type: functional, cell-based; details: capan-1
Mus musculus [11] = experiment: Toxicity in human MX1 cells harboring BRCA1 deletion and BRCA2 mutant xenografted SCID mouse assessed as reduction of body weight at 167 mg/kg, ip administered every 2 days for 2 weeks measured on day 38 relative to control; type: organism-based; design: dose 167 mg/kg, route intraperitoneal; scale not given: the % may be the effect or the level left; details: in vivo
Mus musculus [12] = experiment: Toxicity in human MX1 cells harboring BRCA1 deletion and BRCA2 mutant xenografted SCID mouse assessed as mortality at 167 mg/kg, ip administered every 2 days for 2 weeks measured on day 38 relative to control; type: organism-based; design: dose 167 mg/kg, route intraperitoneal; details: in vivo
MX1 [13] = experiment: Antitumor activity against human MX1 cells harboring BRCA1 deletion and BRCA2 mutant xenografted in SCID mouse assessed as reduction of tumor volume at 167 mg/kg, ip administered every 2 days for 2 weeks measured on day 38 relative to control; type: functional; design: scale not given: the % may be the effect or the level left; details: route intraperitoneal
[14] = Homo sapiens, HCC1937, 72 h, read-out: IC50

SMILES	IC50 (HCC1937; [14]) [µM]	IC50 [1] [µM]	IC50 [2] [µM]	also measured
NC(=O)n1ccc2ccc(-c3ccc(CN4CCOCC4)cc3)nc21	17.2	15.9	2.1	
NC(=O)n1ccc2ccc(-c3ccc(C(=O)N4CCCCC4)cc3)nc21	72.3	24.4	2.9	
NC(=O)n1ccc2ccc(-c3ccc(CN4CCCCC4)cc3)nc21	19.4	22	0.07	IC50 [3]: 11.2 µM; Ratio IC50 (A2780 [4]): 3.9; Activity (Mus musculus [5]): 1%; Activity (Mus musculus [6]): Non-toxic; EC50 [7]: 0.4 µM; Activity (MX1 [8]): 36%; IC50 (A2780 [9]): 2.9 µM
NC(=O)n1ccc2ccc(-c3ccc[nH]3)nc21	61.4	87.1	0.93	
NC(=O)n1ccc2ccc(-c3ccc(CN4CCCC4)cc3)nc21	15	21.7	0.28	
CN(C)Cc1ccc(-c2ccc3ccn(C(N)=O)c3n2)cc1	13.5	19.7	0.63	
CN(C)c1ccc(-c2ccc3ccn(C(N)=O)c3n2)cc1	> 200	> 200	0.88	
NC(=O)n1ccc2ccc(-c3ccc(-c4ccccc4)cc3)nc21	> 200	81.8	> 5	
NC(=O)n1ccc2ccc(N3CCCCC3)nc21			3	
NC(=O)n1ccc2ccc(-c3ccc(F)c(C(=O)N4CCN(C(=O)C5CC5)CC4)c3)nc21			1.12	
C[C@]1(c2nc3c(C(N)=O)cccc3[nH]2)CCCN1 [VELIPARIB]				IC50 [10]: 39.7 µM; IC50 (HCC1937; hcc1937, read-out: IC50): 97.2 µM
NC(=O)Cn1ccc2ccc(-c3ccc(CN4CCCC4)cc3)nc21	182	182	> 5	
NC(=O)n1ccc2ccc(-c3ccccc3)nc21	> 200	> 200	0.27	
COc1ccc(-c2ccc3ccn(C(N)=O)c3n2)cc1	> 200	162	3.76	
NC(=O)n1ccc2cccnc21	> 200	> 200	2.5	
CN1CCN(Cc2ccc(-c3ccc4ccn(C(N)=O)c4n3)cc2)CC1	41.2	54.5	1.56	
NC(=O)n1ccc2ccc(-c3ccccc3F)nc21			3	
NC(=O)n1ccc2ccc(N3CCCC3)nc21	> 200	83.8	0.22	
NC(=O)n1ccc2ccc(-c3ccc(F)cc3)nc21	> 200	61.1	0.27	
CN1CCN(c2ccc3ccn(C(N)=O)c3n2)CC1	111	138	0.77	
O=C(c1cc(Cc2n[nH]c(=O)c3ccccc23)ccc1F)N1CCN(C(=O)C2CC2)CC1 [OLAPARIB]		6.3		IC50 [3]: 41.9 µM; Activity (Mus musculus [11]): 0%; Activity (Mus musculus [12]): Non-toxic; Activity (MX1 [13]): 35%; IC50 (HCC1937; Homo sapiens, HCC1937, 72 h): 10.3 µM; IC50 (A2780 [9]): 1 µM
